Article PMC3229523, “Identification of Lactoferricin B Intracellular Targets Using an Escherichia coli Proteome Chip” (PLoS ONE, 2011)
Ends that are not written are not given here. * marks the point of attachment. Biotin = O=C1N[C@H]2[C@H](CS[C@H]2CCCCC(=O)*)N1

How the values were obtained:
HyaF = test: Fluorescence polarization assay, HyaF; type: binding, E. coli
Description: (§1) FP assays, investigations of the binding between two molecules in a homogeneous aqueous environment, were used to validate the identified 153 proteins. […] If a fluorophore only binds to a small molecule, such as peptide, the rotation of the complex is fast and the light emits in a different plane of polarization. Therefore, the degree of polarization is low. However, once a fluorophore binds to a large molecule, the bound complex is stimulated with polarized light. The light emits in the same polarized plane, and the complex is maintained in the same plane of polarization, causing an increase in the degree of polarization [22]–[24]. The amount of molecules binding to a fluorophore influences the degree of polarization. In this study, LfcinB was labeled with DyLight™ 549 as a reference value. Once the protein bound to LfcinB, like a fluorophore binds to a large molecule, a high degree of polarization is expected.
(§2) Before the assays, LfcinB was labeled with DyLight™ 549 and tested proteins were quantified with a Pierce® bicinchoninic acid (BCA™) protein assay (Thermo). To label the LfcinB, DyLight™ 549-NHS ester and LfcinB (68∶1, mole/mole) were mixed in PBS at room temperature for 1 h, a D-Salt™ polyacrylamide desalting column (Thermo) was used to remove excess dye and the labeling efficiency of the eluted solution was calculated. […]

MetL = test: Fluorescence polarization assay, MetL; type: binding, E. coli
Description: as §1, §2

RecC = test: Fluorescence polarization assay, RecC; type: binding, E. coli; conditions: 100 nM DyLight 549-labeled LfcinB; protein 0.025-0.4 µM; data not shown
Description: as §1, §2

YnhE = test: Fluorescence polarization assay, YnhE; type: binding, E. coli; conditions: 100 nM DyLight 549-labeled LfcinB; protein 0.025-0.4 µM; data not shown
Description: as §1, §2

YhaN = test: Fluorescence polarization assay, YhaN; type: binding, E. coli; conditions: 100 nM DyLight 549-labeled LfcinB; protein 0.025-0.4 µM; data not shown
Description: as §1, §2

Ppc = test: Fluorescence polarization assay, Ppc; type: binding, E. coli; conditions: 100 nM DyLight 549-labeled LfcinB; protein 0.025-0.4 µM; data not shown
Description: as §1, §2

NrdD = test: Fluorescence polarization assay, NrdD; type: binding, E. coli; conditions: 100 nM DyLight 549-labeled LfcinB; protein 0.025-0.4 µM; data not shown
Description: as §1, §2

[1] = test system: Bovine Serum Albumin, BSA; test: Fluorescence polarization assay, BSA negative control; type: binding; conditions: BSA 0.4, 0.2, 0.1, 0.05 µM (negative control); 100 nM labeled LfcinB
Description: as §1, §2

[2] = test system: E. coli K-12 BW25113 (isogenic parent) strain; test: Knockout assay, isogenic parent strain; type: cell-based; conditions: 32 µM LfcinB, LB medium, 37°C, approx. 10^7 CFU/ml
Procedure: The E. coli K-12 BW25113 (isogenic parent) strain and the 16 knockout strains were obtained from the E. coli Genetic Resources at the Coli Genetic Stock Center (CGSC) at Yale University. The strains were inoculated into LB medium, and incubated at 37°C with shaking. After 16 h of incubation, the cultures were diluted to approximately 10^7 CFU/ml with LB medium. Thirty-two µM of LfcinB were then added to the cultures in a 96-well plate. PBS was used as a negative control. Cultures with LfcinB or PBS were then incubated at 37°C with shaking in a microplate reader and the growth was observed by measuring the OD595 value every 20 min for 7 h 20 min.

E. coli MG1655 = test: Pyruvate assay: E. coli growth (OD595); type: cell-based; conditions: 32 µM LfcinB
Description: To confirm one of the mechanisms of LfcinB action in pyruvate metabolism, a minimal medium was chosen; because general LB medium contains many carbon sources, including sugars, alcohols and organic acids, this minimal medium allowed glucose to be the sole carbon source in the pyruvate assays. Minimal medium consisted of 6 g/l NaH2PO4, 3 g/l K2HPO4, 0.5 g/l NaCl, 0.12 g/l MgSO4, 1 g/l NH4Cl, 0.01 g/l CaCl2 and 5 g/l glucose. A 0.22 µm filter (Millex®GS, Millipore) was used to filter the minimal medium. E. coli MG1655 was first inoculated into the minimal medium and incubated at 37°C for 16 h with shaking as a preculture. The preculture was diluted 100-fold with the minimal medium in 96-well plate, and 32 µM of LfcinB were added. The mixture was incubated with shaking in a microplate reader at 37°C, and the absorbance was measured after 9 h. Finally, the mixture was harvested by centrifugation at 3452 g for 5 min at 4°C, and each supernatant was removed. The pellets were then stored at −80°C.

bacteria = conditions: cited from earlier work
Description: Natural antimicrobial peptides are pervasive in plants, insects and animals.

## Lactoferricin B (Biotin-FKCRRWQWRMKKLGAPSITCVRRAF; ends and bridges not checked) [LfcinB]
HyaF; 100 nM DyLight 549-labeled LfcinB, protein 0.025-0.4 µM, PBS, 0.005% BSA, 0.01% Triton X-100, room temperature, 1 h, ex 540 nm, em 590 nm, Figure 5A
  degree of polarization vs BSA: higher polarization than the negative control
HyaF; HyaF, two-fold dilution 0.4 µM to 0.025 µM, 100 nM labeled LfcinB
  concentration dependence of polarization: increased with increasing concentrations of these 4 proteins
MetL; 100 nM DyLight 549-labeled LfcinB, protein 0.025-0.4 µM, PBS, 0.005% BSA, 0.01% Triton X-100, room temperature, 1 h, Figure 5C
  degree of polarization vs BSA: higher polarization than the negative control
MetL; MetL, two-fold dilution 0.4 µM to 0.025 µM, 100 nM labeled LfcinB
  concentration dependence of polarization: increased with increasing concentrations of these 4 proteins
RecC
  binding to RecC: confirmed to bind to LfcinB
YnhE
  binding to YnhE: confirmed to bind to LfcinB
YhaN
  binding to YhaN: confirmed to bind to LfcinB
Ppc
  binding to Ppc: confirmed to bind to LfcinB
NrdD
  binding to NrdD: confirmed to bind to LfcinB
[1]
  concentration dependence of polarization: remained constant with increasing concentrations of BSA
[2]
  growth with LfcinB: inhibited the growth of the isogenic parent strain
E. coli MG1655; minimal medium with glucose, 37°C, 9 h, E. coli without LfcinB 0.325±0.011
  Value of OD595 after 9 h incubation: 0.267±0.011
E. coli MG1655; minimal medium with glucose, 37°C, E. coli without LfcinB 0.057±0.002
  Initial value of OD595: 0.058±0.001
E. coli MG1655; minimal medium, 9 h
  amount (OD595) of E. coli after 9 h with vs without LfcinB: lower than the level of E. coli without LfcinB
bacteria
  bacterial growth inhibition and membrane effect: inhibits bacterial growth by impeding intracellular activities without destroying membrane integrity or penetrating the cytoplasmic membrane
  mechanism of antimicrobial activity: pore-forming mechanism
